The values below come from ChEMBL document CHEMBL1133442, “Symmetrical bis(heteroarylmethoxyphenyl)alkylcarboxylic acids as inhibitors of leukotriene biosynthesis” (J Med Chem, 2000).

One experiment is filed under the species Homo sapiens. Description: Inhibition of calcium ionophore (A-23187) stimulated leukotriene B4 (LTB4) formation in human neutrophils at 390 nM. Type of experiment: functional.
The subject of the next experiment is Rattus norvegicus. Description: Inhibition of leukotriene production in an ionophore-induced rat pleurisy model at 3 mg/kg. Type of experiment: functional. As to conditions: for inhibition in vivo at 3 mg/kg: Rattus norvegicus.

As for `O=C(O)CON=C(c1ccc(OCc2ccc3ccccc3n2)cc1)c1ccc(OCc2ccc3ccccc3n2)cc1`, the IC50 in the experiment listed under Homo sapiens (Homo sapiens) was found to be 0.032 µM. Further, the inhibition in vivo at 3 mg/kg with Rattus norvegicus was 0%.

Turning to `CC(CC(=O)O)(c1ccc(OCc2ccc3ccccc3n2)cc1)c1ccc(OCc2ccc3ccccc3n2)cc1`, the IC50 in the experiment filed under Homo sapiens (Homo sapiens) was determined as 0.17 µM. This compound also yielded an inhibition in vivo at 3 mg/kg in the experiment with Rattus norvegicus of 0%.

For `CC(CCCO)(c1ccc(OCc2ccc3ccccc3n2)cc1)c1ccc(OCc2ccc3ccccc3n2)cc1`, the IC50 in the experiment listed under Homo sapiens (Homo sapiens) amounted to 0.13 µM. In addition, in the experiment on Rattus norvegicus, 3 mg/kg produced 7% inhibition in vivo.

In the case of `CC(CCC(=O)[O-])(c1ccc(OCc2ccc3ccccc3c2)cc1)c1ccc(OCc2ccc3ccccc3n2)cc1.[Na+]` (configuration not stated), in the experiment on Rattus norvegicus, the Inhibition is 40%.

With `O=C([O-])C=C(c1ccc(OCc2ccc3ccccc3n2)cc1)c1ccc(OCc2ccc3ccccc3n2)cc1.[Na+]`, the IC50 in the experiment filed under Homo sapiens amounted to 0.04 µM. For the same compound, the Inhibition with Rattus norvegicus is recorded as 19%.

Turning to `O=C(O)CO/N=C/C(c1ccc(OCc2ccc3ccccc3n2)cc1)c1ccc(OCc2ccc3ccccc3n2)cc1`, the half-maximal inhibitory concentration (IC50) in the experiment listed under Homo sapiens (Homo sapiens) came to 0.035 µM.

On to `CC(CCC(=O)O)(c1ccc(OCc2nc3ccccc3s2)cc1)c1ccc(OCc2nc3ccccc3s2)cc1` [listing 1 of 2 here], for which the IC50 in the experiment filed under Homo sapiens (Homo sapiens) was found to be 0.046 µM. Besides, the inhibition in vivo at 3 mg/kg in the experiment with Rattus norvegicus worked out at 0%.

As for `CCOC(=O)C1CCC(c2ccc(OCc3ccc4ccccc4n3)cc2)(c2ccc(OCc3ccc4ccccc4n3)cc2)CC1`, in the experiment listed under Homo sapiens (Homo sapiens), the IC50 is 1.9 µM.

As to `O=C(O)CO/N=C/C=C(c1ccc(OCc2ccc3ccccc3n2)cc1)c1ccc(OCc2ccc3ccccc3n2)cc1`, in the experiment filed under Homo sapiens (Homo sapiens), the IC50 amounted to 0.026 µM. Moreover, the inhibition in vivo at 3 mg/kg in the experiment with Rattus norvegicus stood at 10%.

Consider `CC(C)(C(=O)O)C(c1ccc(OCc2ccc3ccccc3n2)cc1)c1ccc(OCc2ccc3ccccc3n2)cc1`, for which the IC50 in the experiment filed under Homo sapiens (Homo sapiens) stood at 0.1 µM. In the experiment with Rattus norvegicus, this compound came in with an inhibition in vivo at 3 mg/kg of 50%.

As for `O=C(O)C(c1ccc(OCc2ccc3ccccc3n2)cc1)c1ccc(OCc2ccc3ccccc3n2)cc1`, in the experiment listed under Homo sapiens (Homo sapiens), the IC50 stood at 0.06 µM.

Consider `O=C([O-])C1CCC(c2ccc(OCc3ccc4ccccc4n3)cc2)(c2ccc(OCc3ccc4ccccc4n3)cc2)CC1.[Na+]`, for which the IC50 in the experiment filed under Homo sapiens (Homo sapiens) came out at 0.047 µM. Moreover, the Inhibition in the experiment on Rattus norvegicus amounted to 18%.

`CC(CC(c1ccc(OCc2ccc3ccccc3n2)cc1)c1ccc(OCc2ccc3ccccc3n2)cc1)C(=O)O` (configuration not stated): in the experiment listed under Homo sapiens (Homo sapiens), the IC50 is 0.046 µM. Further, in the experiment with Rattus norvegicus, at 3 mg/kg the inhibition in vivo was 53%.

On to `CC(CCC(=O)O)(c1ccc(OCc2ccc3ccccc3n2)cc1)c1ccc(OCc2nc3ccccc3s2)cc1` (configuration not stated), for which, in the experiment listed under Homo sapiens (Homo sapiens), the IC50 was 0.052 µM.

`O=C(O)C=C(c1ccc(OCc2ccc3ccccc3n2)cc1)c1ccc(OCc2ccc3ccccc3n2)cc1`: in the experiment listed under Homo sapiens (Homo sapiens), the IC50 was 0.05 µM. The same compound came in with an inhibition in vivo at 3 mg/kg in the experiment with Rattus norvegicus of 11%.

Regarding `CC(CCC(=O)O)(c1ccc(OCc2ccc3cc(F)ccc3n2)cc1)c1ccc(OCc2ccc3cc(F)ccc3n2)cc1`, in the experiment filed under Homo sapiens (Homo sapiens), the IC50 was 0.04 µM. Also, the inhibition in vivo at 3 mg/kg in the experiment on Rattus norvegicus is 42%.

For `CC(CC/C=N\OCC(=O)O)(c1ccc(OCc2ccc3ccccc3n2)cc1)c1ccc(OCc2ccc3ccccc3n2)cc1`, the IC50 in the experiment listed under Homo sapiens (Homo sapiens) amounted to 0.04 µM. In the experiment with Rattus norvegicus, testing at 3 mg/kg gave an inhibition in vivo of 0%.

With `O=C(O)CSC(c1ccc(OCc2ccc3ccccc3n2)cc1)c1ccc(OCc2ccc3ccccc3n2)cc1`, the IC50 in the experiment listed under Homo sapiens (Homo sapiens) was 0.058 µM.

Regarding `CC(CCCC(=O)O)(c1ccc(OCc2ccc3ccccc3n2)cc1)c1ccc(OCc2ccc3ccccc3n2)cc1` [listing 1 of 2 here], the IC50 in the experiment filed under Homo sapiens amounted to 0.043 µM. In the experiment with Rattus norvegicus, this compound displayed an Inhibition of 32%.

Take `OC(c1ccc(OCc2ccc3ccccc3n2)cc1)c1ccc(OCc2ccc3ccccc3n2)cc1`: the IC50 in the experiment filed under Homo sapiens (Homo sapiens) is 0.17 µM. Further, the inhibition in vivo at 3 mg/kg in the experiment with Rattus norvegicus came out at 2%.

As to `O=C([O-])CC(c1ccc(OCc2ccc3ccccc3n2)cc1)c1ccc(OCc2ccc3ccccc3n2)cc1.[Na+]`, the IC50 in the experiment listed under Homo sapiens came to 0.07 µM. The Inhibition in the experiment on Rattus norvegicus came out at 30%.

Consider `O=C(O)CSC(c1ccccc1)(c1ccc(OCc2ccc3ccccc3n2)cc1)c1ccc(OCc2ccc3ccccc3n2)cc1`, for which the IC50 in the experiment listed under Homo sapiens (Homo sapiens) was found to be 0.087 µM.

For the compound `O=C(O)C1CCC(c2ccc(OCc3ccc4ccccc4n3)cc2)(c2ccc(OCc3ccc4ccccc4n3)cc2)CC1`, in the experiment listed under Homo sapiens, the IC50 was determined as 0.06 µM. In addition, the Inhibition in the experiment on Rattus norvegicus was found to be 0%.

For the compound `CC(C(=O)O)(c1ccc(OCc2ccc3ccccc3n2)cc1)c1ccc(OCc2ccc3ccccc3n2)cc1`, the IC50 in the experiment filed under Homo sapiens (Homo sapiens) came out at 0.032 µM. The same compound showed an Inhibition with Rattus norvegicus of 25%.

`C/C(=N\OCCCC(C)(c1ccc(OCc2ccc3ccccc3n2)cc1)c1ccc(OCc2ccc3ccccc3n2)cc1)C(=O)O`: the IC50 in the experiment filed under Homo sapiens (Homo sapiens) was found to be 0.035 µM. Besides, the inhibition in vivo at 3 mg/kg in the experiment on Rattus norvegicus amounted to 4%.

For the compound `CC(CCCC(=O)O)(c1ccc(OCc2ccc3ccccc3n2)cc1)c1ccc(OCc2ccc3ccccc3n2)cc1` [listing 2 of 2 here], in the experiment filed under Homo sapiens (Homo sapiens), the IC50 was determined as 0.032 µM. The compound further came in with an inhibition in vivo at 3 mg/kg in the experiment with Rattus norvegicus of 35%.

The compound `O=C(O)CSC(c1ccc(OCc2ccc3ccccc3n2)cc1)(c1ccc(OCc2ccc3ccccc3n2)cc1)c1cccs1` showed an inhibition in vivo at 3 mg/kg with Rattus norvegicus of 80%.

With `C/C(=N\OCC=C(c1ccc(OCc2ccc3ccccc3n2)cc1)c1ccc(OCc2ccc3ccccc3n2)cc1)C(=O)O`, the IC50 in the experiment filed under Homo sapiens (Homo sapiens) was 0.02 µM. The compound further registered an inhibition in vivo at 3 mg/kg in the experiment with Rattus norvegicus of 42%.

For `CC(C)(CO/N=C/C(=O)O)C(c1ccc(OCc2ccc3ccccc3n2)cc1)c1ccc(OCc2ccc3ccccc3n2)cc1`, the IC50 in the experiment listed under Homo sapiens (Homo sapiens) was determined as 0.034 µM. In addition, in the experiment on Rattus norvegicus, testing at 3 mg/kg gave an inhibition in vivo of 27%.

On to `Cn1c(COc2ccc(C(C)(CCC(=O)O)c3ccc(OCc4ccc5ccccc5n4)cc3)cc2)nc2ccccc21` (configuration not stated), for which the IC50 in the experiment listed under Homo sapiens stood at 0.08 µM. The compound also displayed an Inhibition in the experiment with Rattus norvegicus of 0%.

Take `CC(CCC(=O)O)(c1ccc(OCc2ccc3ccccc3c2)cc1)c1ccc(OCc2ccc3ccccc3c2)cc1`: the IC50 in the experiment filed under Homo sapiens (Homo sapiens) was 0.83 µM.

Take `CC(CCCO/N=C/C(=O)O)(c1ccc(OCc2ccc3ccccc3n2)cc1)c1ccc(OCc2ccc3ccccc3n2)cc1`: in the experiment filed under Homo sapiens (Homo sapiens), the IC50 is 0.03 µM. This compound had an inhibition in vivo at 3 mg/kg in the experiment with Rattus norvegicus of 0%.

Turning to `CC(/C=C/C(=O)O)=N\OC(c1ccc(OCc2ccc3ccccc3n2)cc1)c1ccc(OCc2ccc3ccccc3n2)cc1`, the IC50 in the experiment listed under Homo sapiens (Homo sapiens) stood at 0.03 µM. Also, in the experiment on Rattus norvegicus, the inhibition in vivo at 3 mg/kg was 27%.

On to `CC(CCC(=O)O)(c1ccc(OCc2nc3ccccc3s2)cc1)c1ccc(OCc2nc3ccccc3s2)cc1` [listing 2 of 2 here], for which the IC50 in the experiment filed under Homo sapiens amounted to 0.05 µM.

As for `CC(O)(c1ccc(OCc2ccc3ccccc3n2)cc1)c1ccc(OCc2ccc3ccccc3n2)cc1`, the IC50 in the experiment filed under Homo sapiens (Homo sapiens) is 0.05 µM. Besides, the inhibition in vivo at 3 mg/kg in the experiment with Rattus norvegicus turned out to be 0%.

Take `O=C(O)/C=N/OC(c1ccc(OCc2ccc3ccccc3n2)cc1)c1ccc(OCc2ccc3ccccc3n2)cc1`: in the experiment listed under Homo sapiens (Homo sapiens), the IC50 worked out at 0.068 µM. The same compound had an inhibition in vivo at 3 mg/kg in the experiment on Rattus norvegicus of 37%.

In the case of `O=C(O)CC(c1ccc(OCc2ccc3ccccc3n2)cc1)c1ccc(OCc2ccc3ccccc3n2)cc1`, in the experiment listed under Homo sapiens (Homo sapiens), the IC50 is 0.06 µM. Further, in the experiment on Rattus norvegicus, the inhibition in vivo at 3 mg/kg was found to be 17%.

On to `O=C(O)CON=C1CCC(c2ccc(OCc3ccc4ccccc4n3)cc2)(c2ccc(OCc3ccc4ccccc4n3)cc2)CC1`, for which the IC50 in the experiment filed under Homo sapiens (Homo sapiens) was 0.065 µM. In the experiment on Rattus norvegicus, this compound had an inhibition in vivo at 3 mg/kg of 0%.

As to `C/C(=N\OCCC#CC(O)(c1ccc(OCc2ccc3ccccc3n2)cc1)c1ccc(OCc2ccc3ccccc3n2)cc1)C(=O)O`, the IC50 in the experiment listed under Homo sapiens (Homo sapiens) stood at 0.059 µM. The inhibition in vivo at 3 mg/kg in the experiment on Rattus norvegicus was found to be 40%.

Take `CC(C(=O)[O-])(c1ccc(OCc2ccc3ccccc3n2)cc1)c1ccc(OCc2ccc3ccccc3n2)cc1.[Na+]`: the IC50 in the experiment filed under Homo sapiens came out at 0.037 µM. Further, the Inhibition in the experiment on Rattus norvegicus amounted to 46%.

In the case of `C/C(=N\OC1CCC(c2ccc(OCc3ccc4ccccc4n3)cc2)(c2ccc(OCc3ccc4ccccc4n3)cc2)CC1)C(=O)O`, the IC50 in the experiment filed under Homo sapiens (Homo sapiens) was determined as 0.037 µM. Further, the inhibition in vivo at 3 mg/kg in the experiment on Rattus norvegicus amounted to 48%.
